Test results from patent US20250129070A1, “BIFUNCTIONAL ANDROGEN RECEPTOR COMPOUNDS” (priority 2023, published 2025).
pEC50, pIC50: −log10 of the molar value.

Legend:
[1] = test system: AR / CBP ternary complex; assay: Ternary complex formation assay (sandwich ELISA, AR capture / CBP detection) in VCaP cell lysates; assay type: cell-based; settings: 1.5 hours treatment, sandwich ELISA (AR capture, CBP or p300 detection)
Procedure, shortened: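 Anti-AR (AR 441)-coated plates capture AR from lysates of VCaP cells grown ≥3 days at 50K/well in 5% charcoal-stripped FBS, dosed with bifunctional for 1.5 h and lysed 30 min at 4 °C. Co-captured CBP/p300 is probed with rabbit mAb and HRP anti-rabbit, then QuantaRed fluorescence (570/585) is read at 0, 5 and 15 min.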

[2] = test system: VCaP cells; assay: VCaP growth inhibition assay; assay type: cell-based; settings: 30 pM R1881, 9 days, CTG
Procedure, shortened: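 Growth read by CTG luminescence after 9-day exposure to compound (final 100 nM–10 fM, 1:5 steps) plus 30 pM R1881, in phenol red-free DMEM with 5% CSS. Cells pre-incubated 72 h before dosing; IC50 by nonlinear 4-parameter regression.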

SMILES | pEC50 [1] | pIC50 [2]
COc1cc(OC2C(C)(C)C(NC(=O)c3ccc(N4CCC(C5CCC(n6cc(-c7cc8cccc(-c9nn(C%10CCOCC%10)c%10c9CN(C(C)=O)CC%10)c8cn7)cn6)CC5)CC4)cc3)C2(C)C)ccc1C#N (stereo not drawn) [Compound 271, 4-[4-[4-[4-[8-(5-acetyl-1-tetrahydropyran-4-yl-6,7-dihydro-4H-pyrazolo[4,3-c]pyridin-3-yl)-3-isoquinolyl]pyrazol-1-yl]cyclohexyl]-1-piperidyl]-N-[3-(4-cyano-3-methoxy-phenoxy)-2,2,4,4-tetramethylcyclobutyl]benzamide] | > 9.00 | 9.00 to 10.00
CC(=O)N1CCc2c(c(-c3cccc4cc(-c5ccc(CCC6CC7(C6)CN(c6ncc(C(=O)NC8C(C)(C)C(Oc9ccc(C#N)c(Cl)c9)C8(C)C)cn6)C7)nc5)ncc34)nn2C2CCOCC2)C1 (stereo not drawn) [Compound 227, 2-[6-[2-[5-[8-(5-acetyl-1-tetrahydropyran-4-yl-6,7-dihydro-4H-pyrazolo[4,3-c]pyridin-3-yl)-3-isoquinolyl]-2-pyridyl]ethyl]-2-azaspiro[3.3]heptan-2-yl]-N-[3-(3-chloro-4-cyano-phenoxy)-2,2,4,4-tetramethyl-cyclobutyl]pyrimidine-5-carboxamide] | > 9.00 | ≥ 10.00
CC(=O)N1CCc2c(c(N3CCCc4cc(-c5cnn(C)c5)c(C)cc43)nn2C2CCN(C3CCC4(CC3)CN(c3ncc(C(=O)NC5C(C)(C)C(Oc6ccc(C#N)c(C)c6C)C5(C)C)cn3)C4)CC2)C1 (stereo not drawn) [Compound 472, 2-[7-[4-[5-acetyl-3-[7-methyl-6-(1-methylpyrazol-4-yl)-3,4-dihydro-2H-quinolin-1-yl]-6,7-dihydro-4H-pyrazolo[4,3-c]pyridin-1-yl]-1-piperidyl]-2-azaspiro[3.5]nonan-2-yl]-N-[3-(4-cyano-2,3-dimethyl-phenoxy)-2,2,4,4-tetramethyl-cyclobutyl]pyrimidine-5-carboxamide] | > 9.00 | 9.00 to 10.00
CC(=O)N1CCc2c(c(N3CCCc4cc(-c5cnn(C)c5)c(C(F)F)cc43)nn2C2CCN(CC3CCN(c4ncc(C(=O)NC5C(C)(C)C(Oc6ccc(C#N)c(Cl)c6)C5(C)C)cn4)CC3)C2)C1 (stereo not drawn) [Compound 21, 2-[4-[[3-[5-acetyl-3-[7-(difluoromethyl)-6-(1-methylpyrazol-4-yl)-3,4-dihydro-2H-quinolin-1-yl]-6,7-dihydro-4H-pyrazolo[4,3-c]pyridin-1-yl]pyrrolidin-1-yl]methyl]-1-piperidyl]-N-[3-(3-chloro-4-cyano-phenoxy)-2,2,4,4-tetramethyl-cyclobutyl]pyrimidine-5-carboxamide] | 8.00 to 9.00 | 9.00 to 10.00
COc1cc(OC2C(C)(C)C(NC(=O)c3ccc(N4CCC5(CC4)CC4(CC(n6nc(N7CCCc8cc(-c9cnn(C)c9)c(C(F)F)cc87)c7c6CCN(C(C)=O)C7)C4)C5)cc3)C2(C)C)ccc1C#N (stereo not drawn) [Compound 286, 4-[2-[5-acetyl-3-[7-(difluoromethyl)-6-(1-methylpyrazol-4-yl)-3,4-dihydro-2H-quinolin-1-yl]-6,7-dihydro-4H-pyrazolo[4,3-c]pyridin-1-yl]-9-azadispiro[3.1.5^6.1^4]dodecan-9-yl]-N-[3-(4-cyano-3-methoxy-phenoxy)-2,2,4,4-tetramethyl-cyclobutyl]benzamide] | < 7.00 | 7.00 to 9.00
CC(=O)N1CCc2c(c(N3CCCc4cc(-c5cnn(C)c5)c(C(F)F)cc43)nn2C2CCN(C[C@H]3CCN(c4ncc(C(=O)NC5C(C)(C)C(Oc6ccc(C#N)c(Cl)c6)C5(C)C)cn4)C[C@H]3C)CC2)C1 (stereo partly drawn) [Compound 364] | > 9.00 | ≥ 10.00
COc1cc(OC2C(C)(C)C(NC(=O)c3ccc(N4CCC(C)(N5CCC(n6nc(N7CCCc8cc(-c9cnn(C)c9)c(C(F)F)cc87)c7c6CCN(C(C)=O)C7)CC5)CC4)cc3)C2(C)C)ccc1C#N (stereo not drawn) [Compound 305, 4-[4-[4-[5-acetyl-3-[7-(difluoromethyl)-6-(1-methylpyrazol-4-yl)-3,4-dihydro-2H-quinolin-1-yl]-6,7-dihydro-4H-pyrazolo[4,3-c]pyridin-1-yl]-1-piperidyl]-4-methyl-1-piperidyl]-N-[3-(4-cyano-3-methoxy-phenoxy)-2,2,4,4-tetramethyl-cyclobutyl]benzamide] | > 9.00 | ≥ 10.00
CC(=O)N1CCc2c(c(N3CCCc4cc(-c5cnn(C)c5)c(C(F)F)cc43)nn2C2CCC(C3CCC4(CC3)CN(c3ncc(C(=O)NC5C(C)(C)C(Oc6ccc(C#N)c(Cl)c6)C5(C)C)cn3)C4)CC2)C1 (stereo not drawn) [Compound 379, 2-[7-[4-[5-acetyl-3-[7-(difluoromethyl)-6-(1-methylpyrazol-4-yl)-3,4-dihydro-2H-quinolin-1-yl]-6,7-dihydro-4H-pyrazolo[4,3-c]pyridin-1-yl]cyclohexyl]-2-azaspiro[3.5]nonan-2-yl]-N-[3-(3-chloro-4-cyano-phenoxy)-2,2,4,4-tetramethyl-cyclobutyl]pyrimidine-5-carboxamide] | 8.00 to 9.00 | 7.00 to 9.00
COc1cc(OC2C(C)(C)C(NC(=O)c3ccc(N4CCC(n5ncc6c5CCC(n5nc(N7CCCc8cc(-c9cnn(C)c9)c(C(F)F)cc87)c7c5CCN(C(C)=O)C7)C6)CC4)cc3)C2(C)C)ccc1C#N (stereo not drawn) [Compound 265, 4-[4-[5-[5-acetyl-3-[7-(difluoromethyl)-6-(1-methylpyrazol-4-yl)-3,4-dihydro-2H-quinolin-1-yl]-6,7-dihydro-4H-pyrazolo[4,3-c]pyridin-1-yl]-4,5,6,7-tetrahydroindazol-1-yl]-1-piperidyl]-N-[3-(4-cyano-3-methoxy-phenoxy)-2,2,4,4-tetramethyl-cyclobutyl]benzamide] | > 9.00 | ≥ 10.00
COc1cc(OC2C(C)(C)C(NC(=O)c3ccc(N4CCC(N5CCC6(CC5)CC(n5nc(N7CCCc8cc(-c9cnn(C)c9)c(C(F)F)cc87)c7c5CCN(C(C)=O)C7)C6)CC4)cc3)C2(C)C)ccc1C#N (stereo not drawn) [Compound 374, 4-[4-[2-[5-acetyl-3-[7-(difluoromethyl)-6-(1-methylpyrazol-4-yl)-3,4-dihydro-2H-quinolin-1-yl]-6,7-dihydro-4H-pyrazolo[4,3-c]pyridin-1-yl]-7-azaspiro[3.5]nonan-7-yl]-1-piperidyl]-N-[3-(4-cyano-3-methoxy-phenoxy)-2,2,4,4-tetramethyl-cyclobutyl]benzamide] | > 9.00 | 9.00 to 10.00
C[C@@H]1CC(=O)Nc2cccc(-c3ccc4c(c3)c(-c3cnn(C)c3)nn4CCCOc3ncc(C(=O)NC4C(C)(C)C(Oc5ccc(C#N)c(Cl)c5)C4(C)C)cn3)c2N1 (stereo partly drawn) [Compound 49, N-[3-(3-chloro-4-cyano-phenoxy)-2,2,4,4-tetramethyl-cyclobutyl]-2-[3-[5-[(4R)-4-methyl-2-oxo-1,3,4,5-tetrahydro-1,5-benzodiazepin-6-yl]-3-(1-methylpyrazol-4-yl)indazol-1-yl]propoxy]pyrimidine-5-carboxamide] | < 7.00 | 7.00 to 9.00
COc1cc(OC2C(C)(C)C(NC(=O)c3ccc(N4CCC(C(=O)N5CCC(n6nc(-c7cccc8cc(C9CC9)c(C(F)F)cc78)c7c6CCN(C(C)=O)C7)CC5)CC4)cc3)C2(C)C)ccc1C#N (stereo not drawn) [Compound 257, 4-[4-[4-[5-acetyl-3-[6-cyclopropyl-7-(difluoromethyl)-1-naphthyl]-6,7-dihydro-4H-pyrazolo[4,3-c]pyridin-1-yl]piperidine-1-carbonyl]-1-piperidyl]-N-[3-(4-cyano-3-methoxy-phenoxy)-2,2,4,4-tetramethyl-cyclobutyl]benzamide] | > 9.00 | 9.00 to 10.00
CC(=O)N1CCc2c(c(-c3cccc4cc(-c5ccc(CCC6CCN(c7ncc(C(=O)NC8C(C)(C)C(Oc9ccc(C#N)c(Cl)c9)C8(C)C)cn7)CC6)nc5)ncc34)nn2C)C1 (stereo not drawn) [Compound 231, 2-[4-[2-[5-[8-(5-acetyl-1-methyl-6,7-dihydro-4H-pyrazolo[4,3-c]pyridin-3-yl)-3-isoquinolyl]-2-pyridyl]ethyl]-1-piperidyl]-N-[3-(3-chloro-4-cyano-phenoxy)-2,2,4,4-tetramethyl-cyclobutyl]pyrimidine-5-carboxamide] | 7.00 to 8.00 | 9.00 to 10.00
CC(=O)N1CCc2c(c(N3CCCc4cc(-c5cnn(C)c5)c(C(F)F)cc43)nn2C2CC3(C2)CN(CC2CC4(C2)CN(c2ncc(C(=O)NC5C(C)(C)C(Oc6ccc(C#N)c(Cl)c6)C5(C)C)cn2)C4)C3)C1 (stereo not drawn) [Compound 216, 2-[6-[[6-[5-acetyl-3-[7-(difluoromethyl)-6-(1-methylpyrazol-4-yl)-3,4-dihydro-2H-quinolin-1-yl]-6,7-dihydro-4H-pyrazolo[4,3-c]pyridin-1-yl]-2-azaspiro[3.3]heptan-2-yl]methyl]-2-azaspiro[3.3]heptan-2-yl]-N-[3-(3-chloro-4-cyano-phenoxy)-2,2,4,4-tetramethyl-cyclobutyl]pyrimidine-5-carboxamide] | > 9.00 | ≥ 10.00
COc1cc(OC2C(C)(C)C(NC(=O)c3ccc(N4CC(N5CCC6(CCC(n7nc(N8CCCc9cc(-c%10cnn(C)c%10)c(C(F)F)cc98)c8c7CCN(C(C)=O)C8)CC6)C5)C4)cc3)C2(C)C)ccc1C#N (stereo not drawn) [Compound 402, 4-[3-[8-[5-acetyl-3-[7-(difluoromethyl)-6-(1-methylpyrazol-4-yl)-3,4-dihydro-2H-quinolin-1-yl]-6,7-dihydro-4Hpyrazolo[4,3-c]pyridin-1-yl]-2-azaspiro[4.5]decan-2-yl]azetidin-1-yl]-N-[3-(4-cyano-3-methoxy-phenoxy)-2,2,4,4-tetramethyl-cyclobutyl]benzamide] | > 9.00 | ≥ 10.00
